Measurements as given in EP0076430A1, “Compositions having antimicrobial activity” (MEDEA RESEARCH S.r.l., priority 1981, dated 1983).
Values after ≈ are worked out from the molar mass of the structure shown.

Assays:
[1] = system: Bacillaceae; experiment: Minimum inhibitory concentration (MIC), broth dilution; type: cell-based; settings: 24 h; strain 1722
Protocol: (§1) Different bacterial species isolated from patients are employed.
(§2) Compounds AB5 and AB6 are dissolved in ethanol (ethyl alcohol 95°, C. Erba) and all the subsequent dilutions performed in distilled water. The chlorhexidine is diluted from the commercial product already dissolved in distilled water.
(§3) The broth dilution is employed to assess MIC values for all strains. Sterile microtiter plates with U bottom with 96 wells are employed. 0.1 Ml of liquid medium (tryptose Roche broth) are put in each well, the plates are kept at -20° and, before use, at room temperature.
(§4) The disinfectant agent is put in the wells of the row 2 at a concentration of 4000 mcg/ml (real 2000 mcg/ml) and then with a 100 µl micro- pipette dilutions are performed from row 2 to row 11.
(§5) The row 1 is the control of the medium and the row 12 is the control for the fertility of the medium itself.
(§6) After having performed the dilutions, 0.01 ml of a 24 hrs bacterial broth culture (previously diluted at 10^-4 for Gram-negative strains and 10-2 for Gram-positive ones) are placed in all wells, from the rows 2 to 12. After the inoculation, the plate is hermetical ly sealed with adhesive transparent band and an hole is done with a needle. The plates are kept at 35° for 24 hours and a macroscopic reading is carried out; in case of non uniform reading, taking place only for chlorhexidine, the cultures from the wells are plated on agar-heart-brain medium (Sclavo) through Dinatech apparatus (head "Inoculum 96") and the reading of the growth is carried out in the following 24 hours.

[2] = system: E.coli; experiment: as above; type: cell-based; settings: Escherichia coli, 24 h
Protocol: as §1, §2, §3, §4, §5, §6

[3] = system: Enterobacter; experiment: as above; type: cell-based; settings: 24 h, strain 2643
Protocol: as §1, §2, §3, §4, §5, §6

[4] = system: Indole-positive Proteus; experiment: as above; type: cell-based; settings: 24 h
Protocol: as §1, §2, §3, §4, §5, §6

[5] = system: Pseudomonas aeruginosa; experiment: as above; type: cell-based; settings: 24 h
Protocol: as §1, §2, §3, §4, §5, §6

[6] = system: Salmonella sp.; experiment: as above; type: cell-based; settings: 24 h, strain 2482
Protocol: as §1, §2, §3, §4, §5, §6

[7] = system: Serratia marcescens; experiment: as above; type: cell-based; settings: 24 h, strain 1814
Protocol: as §1, §2, §3, §4, §5, §6

[8] = system: Staph. aureus; experiment: as above; type: cell-based; settings: Staphylococcus aureus, 24 h; strain 2672
Protocol: as §1, §2, §3, §4, §5, §6

[9] = system: E. coli; experiment: Bactericide activity at different contact times; type: cell-based; design: key to Bactericide action (growth / no growth): + = growth; - = no growth; settings: 100 p.p.m.
Protocol: as §1, §2
(§7) It is assessed through Dinatech apparatus with "Inoculum 96" head.
(§8) Chemical compounds at established concentra tions are placed in amount of 1 ml in the con tainers, the bacterial inoculum is then added in amount of 0.1 ml (24 hrs culture) and at pre-established times (3,5,10,30,60 and 120 mi nutes), through the head, the mixture compound/ disinfectant agent is transferred in solid medium (agar-heart-brain medium). After incubation at 35°C for 24 hours, the reading is carried out. The tests are repeated in presence of human serum at the concentration of 10%.

[10] = system: Indole-positive Proteus; experiment: Bactericide activity at different contact times; type: cell-based; design: key to Bactericide action (growth / no growth): + = growth; - = no growth; settings: 100 p.p.m.
Protocol: as §1, §2, §7, §8

[11] = system: Serratia marcescens; experiment: Bactericide activity at different contact times; type: cell-based; design: key to Bactericide action (growth / no growth): + = growth; - = no growth; settings: 100 p.p.m.
Protocol: as §1, §2, §7, §8

[12] = system: Pseudomonas aeruginosa; experiment: Bactericide activity at different contact times; type: cell-based; design: key to Bactericide action (growth / no growth) / Bactericide activity (growth / no growth), serum interference test: + = growth; - = no growth; settings: 100 p.p.m.
Protocol: as §1, §2, §7, §8

[13] = system: B. subtilis; experiment: Bactericide activity at different contact times; type: cell-based; design: key: + = growth; - = no growth; settings: 100 p.p.m.
Protocol: as §1, §2, §7, §8

[14] = system: Salmonella sp.; experiment: Bactericide activity at different contact times; type: cell-based; design: key: + = growth; - = no growth; settings: 100 p.p.m.
Protocol: as §1, §2, §7, §8

[15] = system: Staph. aureus; experiment: Bactericide activity at different contact times; type: cell-based; design: key: + = growth; - = no growth; settings: 100 p.p.m.
Protocol: as §1, §2, §7, §8

[16] = Toxicity, LD50 by intraperitoneal route; settings: mouse, in vivo, ip, mice

NC(=NCl)c1ccccc1 [AB5]
MIC [1]: 15.6 µg/mL (≈ 101 µM)
MIC ([2]; strain 2094): 250 µg/mL (≈ 1620 µM)
MIC ([2]; strain 2096): 250 µg/mL (≈ 1620 µM)
MIC ([2]; strain 2117): 250 µg/mL (≈ 1620 µM)
MIC ([2]; strain 2456): 500 µg/mL (≈ 3230 µM)
MIC ([2]; strain 2568): 500 µg/mL (≈ 3230 µM)
MIC [3]: 250 µg/mL (≈ 1620 µM)
MIC ([4]; strain 2075): 250 µg/mL (≈ 1620 µM)
MIC ([4]; strain 2083): 125 µg/mL (≈ 809 µM)
MIC ([4]; strain 2105): 500 µg/mL (≈ 3230 µM)
MIC ([4]; strain 2410): 250 µg/mL (≈ 1620 µM)
MIC ([4]; strain 2447): 500 µg/mL (≈ 3230 µM)
MIC ([4]; strain 2674): 500 µg/mL (≈ 3230 µM)
MIC ([5]; strain 2084): 250 µg/mL (≈ 1620 µM)
MIC ([5]; strain 2458): 500 µg/mL (≈ 3230 µM)
MIC ([5]; strain 2488): 250 µg/mL (≈ 1620 µM)
MIC ([5]; strain 2508): 500 µg/mL (≈ 3230 µM)
MIC ([5]; strain 2509): 250 µg/mL (≈ 1620 µM)
MIC ([5]; strain 2670): 500 µg/mL (≈ 3230 µM)
MIC [6]: 250 µg/mL (≈ 1620 µM)
MIC [7]: 31.2 µg/mL (≈ 202 µM)
MIC [8]: 250 µg/mL (≈ 1620 µM)
contact time for total bactericide activity [9]: ≤ 3 min
Bactericide action (growth / no growth) ([9]; contact time 3 min): -
Bactericide action (growth / no growth) ([9]; contact time 5 min): -
Bactericide action (growth / no growth) ([9]; contact time 10 min): -
Bactericide action (growth / no growth) ([9]; contact time 30 min): -
Bactericide action (growth / no growth) ([9]; contact time 60 min): -
Bactericide action (growth / no growth) ([9]; contact time 120 min): -
contact time for total bactericide activity [10]: 60 to 120 min
Bactericide action (growth / no growth) ([10]; contact time 3 min): +
Bactericide action (growth / no growth) ([10]; contact time 5 min): +
Bactericide action (growth / no growth) ([10]; contact time 10 min): -
Bactericide action (growth / no growth) ([10]; contact time 30 min): -
Bactericide action (growth / no growth) ([10]; contact time 60 min): -
Bactericide action (growth / no growth) ([10]; contact time 120 min): -
Bactericide action (growth / no growth) ([11]; contact time 3 min): -
Bactericide action (growth / no growth) ([11]; contact time 5 min): -
Bactericide action (growth / no growth) ([11]; contact time 10 min): -
Bactericide action (growth / no growth) ([11]; contact time 30 min): -
Bactericide action (growth / no growth) ([11]; contact time 60 min): -
Bactericide action (growth / no growth) ([11]; contact time 120 min): -
contact time for total bactericide activity [12]: 60 to 120 min
Bactericide action (growth / no growth) ([12]; contact time 3 min): +
Bactericide action (growth / no growth) ([12]; contact time 5 min): +
Bactericide action (growth / no growth) ([12]; contact time 10 min): +
Bactericide action (growth / no growth) ([12]; contact time 30 min): +
Bactericide action (growth / no growth) ([12]; contact time 60 min): +
Bactericide action (growth / no growth) ([12]; contact time 120 min): -
Bactericide action (growth / no growth) ([13]; contact time 3 min): -
Bactericide action (growth / no growth) ([13]; contact time 5 min): -
Bactericide action (growth / no growth) ([13]; contact time 10 min): -
Bactericide action (growth / no growth) ([13]; contact time 30 min): -
Bactericide action (growth / no growth) ([13]; contact time 60 min): -
Bactericide action (growth / no growth) ([13]; contact time 120 min): -
Bactericide action (growth / no growth) ([14]; contact time 3 min): +
Bactericide action (growth / no growth) ([14]; contact time 5 min): +
Bactericide action (growth / no growth) ([14]; contact time 10 min): -
Bactericide action (growth / no growth) ([14]; contact time 30 min): -
Bactericide action (growth / no growth) ([14]; contact time 60 min): -
Bactericide action (growth / no growth) ([14]; contact time 120 min): -
Bactericide action (growth / no growth) ([15]; contact time 3 min): +
Bactericide action (growth / no growth) ([15]; contact time 5 min): +
Bactericide action (growth / no growth) ([15]; contact time 10 min): +
Bactericide action (growth / no growth) ([15]; contact time 30 min): +
Bactericide action (growth / no growth) ([15]; contact time 60 min): -
Bactericide action (growth / no growth) ([15]; contact time 120 min): -
LD50 [16]: 85 mg/kg
